Source: US12372525B2 (priority 2013, dated 2025)
“Also recorded” adds a separate entry of the source.

How the values were obtained:
[1] = system: A/Mississippi/03/2001 A(H1N1) H275Y neuraminidase; type: biochemical, Influenza A
[2] = system: B/Hong Kong/36/2005 B) R371K; conditions: Oselt + Zana resistance strain; cited from earlier work
[3] = system: A/Montana/8/2007 (H3N2) D151V/D; conditions: Zana resistance strain; cited from earlier work
[4] = system: A/Mississippi/03/2001 A(H1N1) H275Y neuraminidase; conditions: stated character of the test strain; cited from earlier work
[5] = system: influenza virus; conditions: cited from earlier work
[6] = system: A/Washington/29/2009(H1N1pdm) H275Y; conditions: Oselt resistance strain; cited from earlier work
[7] = system: A/Texas/12/2007 (H3N2) E119V; conditions: Oselt resistance strain; cited from earlier work
[8] = system: A/Massachusetts/5/2007 (H1N1) H274Y; conditions: Oselt resistance strain; cited from earlier work
[9] = system: A/Georgia/20/2006 (H1N1) H274Y; conditions: Oselt resistance strain; cited from earlier work

Compound	relative sensitivity of test strain in dual enzyme assay [1]	IC50 [2]	IC50 [3]	known sensitivity of the test strain neuraminidase to the drug [4]	decrease in susceptibility of isolated virus variants [5]	IC50 [6]	IC50 [7]	IC50 [8]	IC50 [9]
CC(=O)N[C@H]1[C@H]([C@H](O)[C@H](O)CO)OC(C(=O)O)=C[C@@H]1N=C(N)N [Zanamivir]	more sensitive to Zanamivir than Oseltamivir; also recorded: Relenza outperforms Tamiflu	0.154 µM	0.192 µM	sensitive	–	–	–	–	–
CCOC(=O)C1=C[C@@H](OC(CC)CC)[C@H](NC(C)=O)[C@@H](N)C1 [Oseltamivir]	–	1.78 µM	–	resistant	> 10 fold	1.46 µM	0.00918 µM	0.258 µM	0.383 µM
